The target in data set [1] is T1, 14-3-3β (Homo sapiens, UniProt P31946).
T1 sequence (P31946 1-246): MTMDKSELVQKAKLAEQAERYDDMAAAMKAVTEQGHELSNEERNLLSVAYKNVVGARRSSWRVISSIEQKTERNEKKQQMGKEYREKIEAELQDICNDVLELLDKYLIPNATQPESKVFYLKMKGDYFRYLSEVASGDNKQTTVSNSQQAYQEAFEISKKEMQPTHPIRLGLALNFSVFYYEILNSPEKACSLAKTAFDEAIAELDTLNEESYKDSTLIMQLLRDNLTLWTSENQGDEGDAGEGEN
The data set is classed as binding.

Data set [2] addresses T1, 14-3-3β. Type of data set: binding. Particulars: at very low and very high FGG-ERα peptide concentrations.
The target of data set [3] is 14‐3‐3β adapter protein (dimer) (UniProt P31946). Kind of data set: fluorescence polarisation.
Data set [4] has the same target. The experiment in a line: fluorescence polarisation. This is another data set of the same source.
The data set “crystal structure” deals with the molecule itself. Kind of data set: crystal structure.
The mark [5] stands for this setting: FGG-ERα titration at constant Q8 concentrations.

The record followed here is article PMC5575475 (Angewandte Chemie (International Ed. in English), 2017).

Read-outs that look alike come from different tables or passages of the source.

Consider `O=C1N2CN3C(=O)N4CN5C(=O)N6CN7C(=O)N8CN9C(=O)N%10CN%11C(=O)N%12CN%13C(=O)N%14CN%15C(=O)N%16CN1C1C2N2CN%17C(=O)N(CN%18C(=O)N(CN%19C(=O)N(CN%20C(=O)N(CN%21C(=O)N(CN%22C(=O)N(CN%23C(=O)N(CN1C2=O)C%16C%15%23)C%14C%13%22)C%12C%11%21)C%10C9%20)C8C7%19)C6C5%18)C4C3%17` (stereo not shown) [Q8, Cucurbit[8]uril], for which, at 14-3-3β [1] (setting [5]), the “Q8 concentration at which the enhancement effect appears to saturate” value is on record as “approximately 10 μM” and the “combinatorial inhibition at high Q8 concentrations” value is “no evidence of combinatorial inhibition”. In addition, the “effect of Q8” value on 14-3-3β [2] was “negligible”.

Cucurbit[7]uril [Q7]: the “enhancement of apparent affinity of FGG-ERα for 14-3-3” value on 14-3-3β [1] (Q7 instead of Q8 (Figure 2E)) is on record as “did not enhance the apparent affinity”.

Regarding “FGG‐ERα phosphopeptide (15‐mer: N‐terminal FGG motif fused to the wild‐type 14‐3‐3‐binding epitope of estrogen receptor α)”, the concentration for half-maximal inhibition (IC50) in data set [3] turned out to be 70 nM; in data set [4] it was 1000 nM.

B1: truncated 14‐3‐3βΔC variant (domain or fragment)
chain: QGSMTMDKSELVQKAKLAEQAERYDDMAAAMKAVTEQGHELSNEERNLLSVAYKNVVGARRSSWRVISSIEQKTERNEKKQQMGKEYREKIEAELQDICNDVLELLDKYLIPNATQPESKVFYLKMKGDYFRYLSEVASGDNKQTTVSNSQQAYQEAFEISKKEMQPTHPIRLGLALNFSVFYYEILNSPEKACSLAKTAFDEAIAELDTLNEESYKDSTLIMQLLRDNLTLWTSENQGDEGDAGEGEN
In the case of B1, the “stoichiometry N” value in “crystal structure” is 2.
